From PMC5510229, “BCAT1 controls metabolic reprogramming in activated human macrophages and is associated with inflammatory diseases” (Nature Communications, 2017) come the findings set out here.

For data set [1], the system named is human monocyte-derived macrophages (hMDMs). Nature of the data set: hMDM cell viability (alamarBlue). Format: cell-based. The conditions noted are these: ERG240 20 mM. As to the method:
Migration of BMDMs an d viability of hMDMs
The migration of BMDMs was assessed using a modified Bo yden chamber methodology.
Specificall y, mouse BMDMs were tr ypsinized and suspended in serum free incomplete medi a containing various concentrations of the drug at a cell density of 2.5x10^4 cells/mL. Volumes of 400 µL of cell suspens ions were added onto the upper chamber of 6.5 m m transwell inserts (Costar, Cat. No. 3422), placed in a 24-well plate (Costar). A volume of 1.5 mL of complete media containing 10% FBS as chemo- attractant were added into the lower chambers of the plate. The assa y also included wells with lower chambers containing serum free incomplete media as negative control. […]
To determine the effect of ERG240 on the total number of BMDMs, cell s were plated onto a 96-well plate at a density of 5,000 cells per well in complete media and allowed to adhere overnight. The cells were then exposed to various drug concentrations overnight and the cell population was quantified with CyQuant Cell Proliferation kit (Life Technologies) using triplicates, in two independent experiments. For hMDMs, cell viability was determined using the alamarBlue® Assa y (Invitrogen). […]
backed up by quantitative proteomics by LC -MS/MS (with maximum of the 12 most abundant multiply -charged ions registered in each survey spectrum selected in a data - […]
For orientation: The colour change of resazurin is a common sign of viable cells or microbes.

The subject of data set [2] is nephrotoxic nephritis (NTN) model. As to the kind of experiment: Nephrotoxic nephritis (NTN, crescentic glomerulonephritis) in the WKY rat. Format: in vivo, Wistar-Kyoto (WKY) rat. From the text:
Figure 5 Orally administrated ERG240 reduced the severity of crescentic glomerulonephritis in rats and CIA in mice. (a) Glomerular crescents, serum creatinine, and proteinuria levels measured in vehicle and ERG240 treated rats at day 10 following induction of nephrotoxic nephritis. At least n=4 rats were used in each group. (b) Col1a1 immunofluorescence (IF) quantification (left panel), representative IF and Sirius red staining images (middle panel) and Col1a1 qRT-PCR (normalized to Hprt) 28 days following NTS injection. Original magnification, × 20, at least n=4 animals were used in each group. (c) Clinical progression of CIA measured by the Mean Arthritis Index in vehicle and ERG240-treated animals in both studies (prophylactic and therapeutic, upper panel; at least n=6 animals per group). Histological analysis of joints from representative whole paws scored for inflammation, pannus formation, cartilage damage and bone resorption (lower panel). Error bars are s.e.m. Either Mann–Whitney or Student’s t-test were used for significance. *** P<0.001, ** P<0.01, * P<0.05. Scale bars, 50 μm.
Nephrotoxic nephritis (NTN) was induced in twelve week old male Wistar-Kyoto (WKY) rats by intravenous injection of 0.1 ml of nephrotoxic serum (NTS), as previously described. Five WKY rats received ERG240 (250 mg kg^−1) orally in 0.1% carboxymethylcellulose once a day for a duration of 10 days whereas the vehicle treated WKY rats had carboxymethylcellulose only for the same period. Nine days following NTS injection, urine was collected by placing rats in metabolic cages for 24 h with free access to food and water. Proteinuria was determined by the sulphosalicylic acid test and serum creatinine by the Creatinine Assay Kit (Abcam). After 10 or 28 days of NTN induction, rats were culled and the kidney was formalin fixed and paraffin embedded for immunohistochemistry. To quantify the number of macrophages infiltrating the glomeruli, formalin-fixed paraffin-embedded kidney sections were stained with mouse monoclonal antibody to ED-1 (Serotec, Oxford, UK), followed by an HRP-labelled anti-mouse polymer development system (Dako Ltd, UK). For the evaluation of total collagen, renal tissues were stained with Sirius red. For Col1a1 immunofluorescence, sections were blocked with BSA, incubated with the Col1a1 primary antibody raised in goat (Southern Biotech, 1/40 dilution), washed and re-incubated with secondary antibody (donkey anti-goat-FITC, 1/100 dilution, Abcam). For ED-1 staining, the cellular infiltrates in 20 consecutive glomeruli were quantified using an automated image analysis software (ImagePro Plus, Media Cybernetics, Bethesda, MD) and expressed as a percentage of total glomerular cross sectional area.

A further data set is described as follows: Water solubility. Format: physicochemical.
Where [3] appears, read: 250 mg kg^−1 orally once a day, 10 days, day 10.

For the molecule `CC(=O)C(C)CCC(=O)O` (centres unmarked) [ERG240], in data set [1] (control and LPS-treated hMDMs), the “cell viability at 3 and 8 h” value is given as “did not affect cell viability”. In addition, the “cell viability at 24 h” value in data set [1] (only in LPS-stimulated cells) is given as “modest but significant reduction in cell viability”. Besides, in data set [2] (setting [3]), the glomerular crescent formation result was “significantly reduced”, the proteinuria entry is listed as “significantly reduced” and the serum creatinine entry is “significantly reduced”. Besides, in data set [2] (NTN model), the interstitial fibrosis entry is “reduced interstitial fibrosis”. Moreover, in data set [2] (day 28), the “Col1a1 mRNA levels in the renal cortex” value is given as “reduced”, the Sirius red staining result is “reduced Sirius red staining” and the “collagen type I alpha I quantitative immunofluorescence in nephritic kidneys” value was “significant down-regulation”. In addition, the “glomerular infiltration of CD68 (ED1)-positive cells” value in data set [2] (rat, in vivo) is “significantly decreased”. The water solubility entry in “Water solubility” is “water-soluble”.
